How the values were obtained:
human TRPA1 = target: T1, human TRPA1 (Homo sapiens, UniProt O75762); experiment: TRP channel agonist activity, intracellular Ca2+ imaging, hTRPA1 stably expressing cell line; type: cell-based; settings: oxylipin compounds 200 μM and 500 μM, AITC 30 μM, Evaluation 5, FIG. 21
T1 construct: expressed in transfected cells
Source text: DNA fragments containing nucleotide sequences encoding amino acid sequences of human TRPA1 (Accession No. NM_007332.3) (hereinafter referred to also as hTRPA1), human TRPV1 (Accession No. NM_080704.4) (hereinafter referred to also as hTRPV1) and human TRPM8 (Accession No. NM_024080.5) (hereinafter referred to also as hTRPM8) were inserted into pcDNA5/TO vectors (Invitrogen) to construct an hTRPA1 expression vector, an hTRPV1 expression vector and an hTRPM8 expression vector, respectively.
T-REx™_293 cells (Invitrogen) were cultured in Dulbecco's modified Eagle medium (DMEM, Nacalai Tesque Inc.) containing 10% fetal bovine serum (FBS, Cytiva) up to 60 to 70% confluent growth in the wells of a 6 well plate. T-REx™-293 cells were transfected with an hTRPA1 expression vector, an hTRPV1 expression vector or an hTRPM8 expression vector by use of Lipofectamine LTX (Invitrogen) in accordance with a manual.
To Dulbecco's modified Eagle medium (DMEM, Nacalai Tesque Inc.) containing 10% fetal bovine serum (FBS, Cytiva), hygromycin B and blasticidin S were added so as to have a concentration of […] and 5 μg/ml, respectively. In this manner, a drug selection medium was prepared. Twenty-four hours after completion of transfection, the medium of the above cells was exchanged with the drug selection medium, and thereafter, the cells were cultured for 7 days while exchanging the medium with a fresh medium every two days. Living cells were subcultured and regarded as hTRPA1 stably expressing cell line, hTRPV1 stably expressing cell line and hTRPM8 stably expressing cell line, respectively.
The day before assay, cells of the individual expressing cell lines were removed from the medium with a trypsin/EDTA solution and seeded in the wells of a 96-well black-well plate with a clear bottom so as to obtain a cell density of 5×10^4 cells to 6×10^4 cells/well. At this time, tetracycline was added to the medium so as to obtain a concentration of 1 μg/ml to induce expression of hTRPA1, hTRPV1 or hTRPM8. Culture was carried out in an incubator at 37° C. for 24 hours to 48 hours and then cells were washed with PBS. After PBS was removed from the wells, 50 μl of a calcium fluorescent indicator, Calbryte 520 AM (AAT, Bioquest), which was prepared by dissolving CaCl2 dihydrate, HEPES, BSA in an assay buffer HBSS (−) (solution prepared by adding so as to obtain a final concentration of 1 mM, 20 mM and 0.1%, respectively), so as to obtain a concentration of 4 μM, was added, to the wells and incubated at 33° C. for 45 minutes. Thereafter, the cells were again washed with the assay buffer and then 100 μl was allowed to remain in the wells to prepare cells for assay. A solution of a test substance for evaluating TRP channel agonist activity and having a concentration twice as large as the concentration for measurement was prepared within the wells of the 96-well plate and used within 30 minutes after preparation. The cells to be subjected to assay were incubated at 31° C. and a test substance solution (100 μl) was added to the cells for assay by use of Flaxstation3 (Molecular Devices) and fluorescence intensity (excitation wavelength: 490 nm, fluorescence wavelength: 525 nm) was measured every 2 seconds up to 120 seconds. Thirty seconds after initiation of measurement, the (test substance) solution was added to the cells for assay such that a final concentration of the test substance becomes a concentration for measurement.
TRP channel activation ability of a test substance was calculated as a relative value based on the activation ability of 10 μM ionomycin to each of TRP channels, in accordance with the following calculation formula. […]

[1] = Solubility of isolated oxylipin compounds (physicochemical properties); settings: solvents listed for the isolated compound
[2] = tested on: intestinal epithelial cells; settings: Non Patent Literature 1, cited from earlier work
[3] = in the presence of 1 μM A-967079 (TRPA1 antagonist)

T1 sequence (O75762 whole entry): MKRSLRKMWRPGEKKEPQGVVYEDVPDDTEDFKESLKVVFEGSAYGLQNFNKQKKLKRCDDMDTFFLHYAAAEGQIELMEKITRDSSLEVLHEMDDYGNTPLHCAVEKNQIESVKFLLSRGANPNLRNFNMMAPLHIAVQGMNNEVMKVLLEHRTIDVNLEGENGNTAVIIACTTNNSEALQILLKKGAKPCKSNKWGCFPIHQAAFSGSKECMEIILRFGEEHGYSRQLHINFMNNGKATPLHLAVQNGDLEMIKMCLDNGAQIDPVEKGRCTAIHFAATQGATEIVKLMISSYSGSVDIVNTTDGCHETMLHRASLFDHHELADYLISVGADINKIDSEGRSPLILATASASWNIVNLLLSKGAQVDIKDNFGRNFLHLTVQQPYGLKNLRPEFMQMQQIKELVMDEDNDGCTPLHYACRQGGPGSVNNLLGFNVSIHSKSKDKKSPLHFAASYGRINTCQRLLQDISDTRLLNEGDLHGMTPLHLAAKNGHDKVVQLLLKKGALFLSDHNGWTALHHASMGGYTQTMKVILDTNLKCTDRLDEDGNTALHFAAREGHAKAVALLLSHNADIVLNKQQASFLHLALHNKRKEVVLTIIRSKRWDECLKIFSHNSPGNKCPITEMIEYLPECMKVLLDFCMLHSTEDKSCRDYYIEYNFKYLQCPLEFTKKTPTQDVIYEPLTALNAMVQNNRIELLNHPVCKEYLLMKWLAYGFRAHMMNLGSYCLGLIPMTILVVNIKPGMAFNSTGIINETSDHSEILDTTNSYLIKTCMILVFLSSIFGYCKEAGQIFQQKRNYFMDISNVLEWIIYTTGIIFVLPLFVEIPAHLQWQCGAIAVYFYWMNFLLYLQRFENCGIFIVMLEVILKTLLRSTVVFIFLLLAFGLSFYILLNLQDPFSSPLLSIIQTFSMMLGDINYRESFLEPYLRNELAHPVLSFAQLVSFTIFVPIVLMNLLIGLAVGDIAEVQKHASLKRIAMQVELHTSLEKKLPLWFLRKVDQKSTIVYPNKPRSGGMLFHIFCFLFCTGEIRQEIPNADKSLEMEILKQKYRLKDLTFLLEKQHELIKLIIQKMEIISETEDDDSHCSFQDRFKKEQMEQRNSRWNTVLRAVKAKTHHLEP

**Q.** With CC/C=C\C/C=C\C=C\C(O)CCCCCCCC(=O)O (stereo not shown) [Compound R3, (10E,12Z,15Z)-9-hydroxy-10,12,15-octadecatrienoic acid] as the compound, how does the TRPA1 activation ability (human TRPA1; in the absence of A-967079) read?
**A.** The TRPA1 activation ability was “showed TRPA1 activation ability in the absence of A-967079 in a concentration dependent manner”.

**Q.** What about the TRPA1 activation ability (human TRPA1; [3]) of the same compound?
**A.** Its TRPA1 activation ability is “did not show TRPA1 activation ability”.

**Q.** What about the Solubility [1] of the same compound?
**A.** Its Solubility is “ethanol, methanol, acetonitrile, ethyl acetate, chloroform”.

**Q.** With “(7Z,13E,15Z)-12-hydroxy-7,13,15-octadecatrienoic acid and (9Z,13E,15Z)-12-hydroxy-9,13,15-octadecatrienoic acid [Compound R2-1]” as the compound, how does the TRPA1 activation ability (human TRPA1; in the absence of A-967079) read?
**A.** The TRPA1 activation ability was “showed TRPA1 activation ability in the absence of A-967079 in a concentration dependent manner”.

**Q.** And the TRPA1 activation ability (human TRPA1; [3])?
**A.** The TRPA1 activation ability was “did not show TRPA1 activation ability”.

**Q.** What does the source list for CC/C=C/CC(O)/C=C/C=C\CCCCCCCC(=O)O (stereo not shown) [Compound R1-2, (9Z,11E,15E)-13-hydroxy-9,11,15-octadecatrienoic acid]?
**A.** TRPA1 activation ability (human TRPA1; in the absence of A-967079): showed TRPA1 activation ability in the absence of A-967079 in a concentration dependent manner; TRPA1 activation ability (human TRPA1; [3]): did not show TRPA1 activation ability; Solubility [1]: ethanol, methanol, acetonitrile, chloroform

**Q.** Which TRPA1 activation ability (human TRPA1; in the absence of A-967079) does the source give for CCC(O)/C=C/C=C\C/C=C\CCCCCCCC(=O)O (stereo not shown) [Compound R2-2, (9Z,12Z,14E)-16-hydroxy-9,12,14-octadecatrienoic acid] here?
**A.** The TRPA1 activation ability was “showed TRPA1 activation ability in the absence of A-967079 in a concentration dependent manner”.

**Q.** And the TRPA1 activation ability (human TRPA1; [3])?
**A.** Its TRPA1 activation ability is “did not show TRPA1 activation ability”.

**Q.** And the Solubility [1]?
**A.** Its Solubility is “ethanol, methanol, acetonitrile, ethyl acetate, chloroform”.

**Q.** What does the source list for CCCCC/C=C/C(=O)CCc1ccc(O)c(OC)c1 [Compound 6-shogaol, 6-shogaol]?
**A.** action to promote release of adrenomedullin from the intestinal epithelial cells, with a TRPA1 antagonist ([2]; TRPA1 antagonist added): inhibited by a TRPA1 antagonist; release of adrenomedullin from the intestinal epithelial cells [2]: have an action to promote release of adrenomedullin from the intestinal epithelial cells

— US20260144780A1, “COMPOSITION FOR ENHANCING ADRENOMEDULLIN GENE EXPRESSION” (HOUSE WELLNESS FOODS CORPORATION, priority 2020, published 2026)
